Experimental data: patent US6495171B2, “Interleukin-4 production inhibitors” (Kao Corporation, priority 1999, dated 2002)

What was measured:
IL-4 production = assay: Measurement of IL-4 production inhibiting ability (KLH-stimulated lymphocytes, ELISA); format: cell-based; settings: lymph node lymphocytes of KLH-sensitized Balb/c mice, KLH 10 μg/mL, 3 days, IL-4 in supernatant by ELISA; for IC50: Mus musculus, Lymphocyte, 72 h, read-out: IC50 (concentrations at which IL-4 yields were inhibited by 50%)
Method: A 4 mg/mL solution of KLH (Keyhole Limpet Hemocyanin; product of Pierce Chemical Company) and Freund complete adjuvant FCA (Bacto Adjuvant Complete Freund; product of DIFCO) were mixed and emulsified at a volume ratio of 1:1. The resulting emulsion was subcutaneously injected at 200 μL/head to the foreleg paws and hind leg paws of Balb/c mice (female, 8 to 12 weeks old), whereby the mice were sensitized. About 7 days later, axillary and popliteal lymph nodes were excised. After the lymph nodes were washed in PBS, they were loosened between two slide glasses in RPMI medium which had been prepared by adding kanamycin and β-mercapto-ethanol to “RPMI 1640 Medium” (product of BRL) such that their final concentrations became 100 μg/mL and 100 μM, respectively, whereby a suspension of lymphocytes was prepared. The lymphocyte suspension was centrifuged twice at 1,000 rpm for 5 minutes, followed by suspension in the RPMI medium added with 10% FCS. The lymphocytes were spread at 4×10^5 lymphocytes/well over 96-well plates. Individual compounds or essential oils, which had been prepared at varied concentrations with 10% FCS-added RMPI medium, were added within a final concentration range of from 0.01 to 100 μg/mL. Subsequent to incubation at 37° C. for about 30 minutes in the presence of 5% CO2, KLH was added to give a final concentration of 10 μg/mL. After incubation at 37° C. for 3 days in the presence of 5% CO2, IL-4 in each supernatant was quantitated by ELISA.
For the ELISA quantitation, “Mice IL-4 ELISA Kit” (product of Amersham Corp.) was used. Following a protocol attached to the kit, the quantitation was conducted using recombinant IL-4 as a standard substance. IL-4 production inhibition rates of the individual compounds at the varied concentrations were calculated [100-(IL-4 yield when the sample was added/IL-4 yield in a control added only with the culture medium)×100]. From the IL-4 production inhibition rates, IC50 values (concentrations at which IL-4 yields were inhibited by 50%) were determined.

[1] = test system: allergy to house dust mite antigen; assay: Effects on allergy to house dust mite antigen (ear swelling); format: in vivo, Balb/c mice; settings: for Swelling inhibition rate (%): 20 μL topically on ear, 24 h after challenge; for inhibitory effects for allergy to the house dust mite antigen (in words): concentrations of 0.1% and 1.0%, statistically significant at 1% or 5% significance level
Method: Tape stripping was applied 8 times with an adhesive cellophane tape (product of Nichiban Co., Ltd.) to shaved abdominal parts of Balb/c mice (female). The abdominal parts were coated with 50-μL portions of a house dust mite antigen, which had been obtained by dialyzing an allergen scratch extract “DANI” (product of Torii Pharmaceutical Co., Ltd.) and then concentrating the dialyzate ten-fold by ultrafiltration, so that the mice were sensitized. One, four, five and six days later, 20 μL portions of cedrol, cumin oil and cedarwood oil of concentrations shown in Table 2 (prepared by dissolving them in 70% ethanol solution) were topically applied onto one ears, respectively, and the same amount of the solvent control (70% ethanol solution) was applied at the others. Seven days after the sensitization, the mice were challenged on the dorsal ear lobe by subcutaneous injection of 10 μL of the same angiten solution. To measure ear swelling caused by nonspecific stimulation with the house dust mite antigen, 10-μL portions of the house dust mite antigen were subcutaneously injected to one ear lobes of unsensitized mice. Three and twenty hours after the stimulation, the ear lobes of the anesthetized mice were covered with pieces of paper towel soaked with purified water of 40° C., respectively. After that, 20 μL portions of the individual compounds were topically applied to one ears, respectively, while to the other, the same amount of the solvent control were applied. Twenty-four hours after stimulation, the thicknesses of the ears were measured by a thickness gauge, and differences from the thicknesses of the corresponding ears before the stimulation were recorded as ear swellings. Each ear swelling inhibition rate (%) was determined by the following formula: [ear swelling (solvent control)−ear swelling (sample)]/[ear swelling (solvent control)−ear swelling (nonspecific stimulation by the house dust mite antigen)]×100. Differences in swelling between the ear applied with the solvent control and the corresponding ears applied with the samples, respectively, were statistically analyzed by t-test, and any difference with significance level lower than 5% was considered statistically significant.

CC(C)=CCCC(C)=CCCC(C)=CCO [Farnesol]
IC50 (IL-4 production): 0.59 µg/mL

C[C@@H]1CC[C@@H]2[C@@H]1[C@H]1[C@@H](CC[C@@]2(C)O)C1(C)C [Globulol]
IC50 (IL-4 production): 1.08 µg/mL
Swelling inhibition rate (%) ([1]; Concentration 0.01 W/V %): 11%
Swelling inhibition rate (%) ([1]; Concentration 0.10 W/V %): 19%
Swelling inhibition rate (%) ([1]; Concentration 1.00 W/V %): 26%
inhibitory effects for allergy to the house dust mite antigen (in words) [1]: marked effects

C=CCc1ccc(O)c(OC)c1 [Eugenol]
IC50 (IL-4 production): 5.6 µg/mL

Epiglobulol
IC50 (concentrations at which IL-4 yields were inhibited by 50%) (IL-4 production): 1.14 µg/mL

CC(=O)O[C@]1(C)CC[C@@]23C[C@@H]1C(C)(C)[C@@H]2CC[C@H]3C [Cedryl acetate]
IC50 (IL-4 production): 0.78 µg/mL

Thujopsenol
IC50 (concentrations at which IL-4 yields were inhibited by 50%) (IL-4 production): 3.60 µg/mL

Cedrenol
IC50 (concentrations at which IL-4 yields were inhibited by 50%) (IL-4 production): 3.34 µg/mL

Santalol
IC50 (concentrations at which IL-4 yields were inhibited by 50%) (IL-4 production): 2.40 µg/mL

CCOCC(O)COc1ccc(NC(=O)CC[S+](C)C)cc1 (stereo not shown) [Suplatast tosilate, reference compound]
IC50 (IL-4 production): 50 µg/mL

CC(=O)C1=C(C)[C@@H]2C[C@@]3(C1)[C@H](C)CC[C@H]3C2(C)C [Acetylcedrene]
IC50 (concentrations at which IL-4 yields were inhibited by 50%) (IL-4 production): 1.60 µg/mL

C[C@H]1CC[C@@H](C(C)(C)O)CC2=C1CC[C@@H]2C [Guaiol]
IC50 (concentrations at which IL-4 yields were inhibited by 50%) (IL-4 production): 0.68 µg/mL

CC(C)c1cccc(=O)c(O)c1 [Hinokitiol]
IC50 (IL-4 production): 0.1 µg/mL

CC1CCC(C(C)C)C(O)C1 (stereo not shown) [Menthol]
IC50 (IL-4 production): 19.6 µg/mL

C[C@H]1CC[C@@]2(O)C(C)(C)[C@@H]3CC[C@@]2(C)[C@H]1C3 [Patchouli alcohol]
IC50 (concentrations at which IL-4 yields were inhibited by 50%) (IL-4 production): 0.72 µg/mL

CC1(C)CCC[C@@]2(C)CC[C@](C)(O)CC=C12 [Widdrol]
IC50 (concentrations at which IL-4 yields were inhibited by 50%) (IL-4 production): 4.00 µg/mL

C[C@@H]1CC[C@H]2C(C)(C)[C@H]3C[C@@]12CC[C@@]3(C)O [Cedrol]
IC50 (IL-4 production): 3 µg/mL
Swelling inhibition rate (%) ([1]; Concentration 0.01 W/V %): 8%
Swelling inhibition rate (%) ([1]; Concentration 0.10 W/V %): 14%
Swelling inhibition rate (%) ([1]; Concentration 1.00 W/V %): 13%
inhibitory effects for allergy to the house dust mite antigen (in words) [1]: marked effects

CC(C)=CCCC(C)CCO (stereo not shown) [Citronellol]
IC50 (IL-4 production): 37.3 µg/mL
